Assay results taken from paper PMC7534389, “Thiazolidin-2-cyanamides derivatives as novel potent Escherichia coli β-glucuronidase inhibitors and their structure–inhibitory activity relationships” (Journal of Enzyme Inhibition and Medicinal Chemistry, 2020).
“And” between values parts separate entries of the source, which are not always exact repeats. Equal entries are not always repeated. Where two headings read alike, the source gives them in different places.

Key:
[1] = molecular target: T1, Escherichia coli β-glucuronidase (EcGUS) (Escherichia coli, UniProt P05804); assay: EcGUS-mediated PNPG hydrolysis inhibition assay (screening at 10 µM and IC50); type: biochemical
T1 construct: inferred from the pET28a vector and Ni-NTA purification; made in house; host or cells: E. coli BL21 (DE3)
T1 sequence (P05804 whole entry): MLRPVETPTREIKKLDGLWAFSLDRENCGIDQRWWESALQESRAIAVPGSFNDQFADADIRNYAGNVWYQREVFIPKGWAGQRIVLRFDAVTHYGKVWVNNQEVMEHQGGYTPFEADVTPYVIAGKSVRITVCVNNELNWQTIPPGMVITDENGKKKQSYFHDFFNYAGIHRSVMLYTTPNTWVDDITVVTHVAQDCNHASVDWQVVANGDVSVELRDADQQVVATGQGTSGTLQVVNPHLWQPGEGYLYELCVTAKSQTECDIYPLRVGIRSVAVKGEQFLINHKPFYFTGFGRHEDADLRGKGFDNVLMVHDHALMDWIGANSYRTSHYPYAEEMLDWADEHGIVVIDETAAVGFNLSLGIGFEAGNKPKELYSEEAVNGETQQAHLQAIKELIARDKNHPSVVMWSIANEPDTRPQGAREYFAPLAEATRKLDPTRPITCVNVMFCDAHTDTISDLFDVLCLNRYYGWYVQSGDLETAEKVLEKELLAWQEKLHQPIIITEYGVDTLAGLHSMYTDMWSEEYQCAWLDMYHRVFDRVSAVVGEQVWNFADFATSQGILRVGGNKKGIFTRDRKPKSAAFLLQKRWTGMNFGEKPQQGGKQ
Protocol: EcGUS was prepared according to our previous report. The recombinant strain were incubated in 200 mL of LB broth (Tryptone, 10 g/L; yeast extract, 5 g/L; NaCl, 10 g/L; pH 7.0) containing 1% kanamycin at 220 rpm and 37 °C until OD600 reached 0.5–0.6. Afterward, IPTG (final concentration, 0.5 mM) was added and the culture was incubated at 220 rpm and 16 °C for 16 h to induce the expression of β-glucuronidase. The cells were collected by centrifugation and suspended in PBS buffer (pH 7.4), and then applied to extract the enzyme by sonication. Finally, pure EcGUS was obtained from the cell-free extracts through a Ni-NTA column (EMD Millipore Corp., MA, USA). Protein concentration was determined using the BCA Protein Assay Kit (Beyotime, Shanghai, China) according to the manufacturer’s instruction, and its purity was determined by SDS-PAGE.
Thirteen thiazolidin-2-cyanamide derivatives were subjected to screening for potent EcGUS inhibitor. The inhibitory effects of these compounds were determined by measuring the PNP formation generated from PNPG by EcGUS. Briefly, the assays were conducted in 96-well flat-bottomed tissue culture plates (Nunc, Denmark) with a total volume of 100 µL which consisted of 10 µL EcGUS (final concentration, 2 µg/mL), 70 µL PBS buffer (pH 7.4), 10 µL test compound or DSL (final concentration, 10 µM) and 10 µL PNPG (final concentration, 250 µM). DSL was used as a positive control, and 1%DMSO was used as blank control. All reactions were performed in triplicate and the produced PNP was monitored by measuring absorbance at 405 nm in a plate reader (SpectraMax Plus384, Molecular Devices, CA, USA) after incubating at 37 °C for 30 min. The PNP concentration was determined from a standard curve (0, 10, 20, 40, 60, 80, 100, 120 µM PNP) in PBS buffer (pH 7.4). Relative activity was defined as a percent of PNP formation in the presence of test compound within 30 min compared with the blank control group.
IC50 values of the 13 thiazolidin-2-cyanamide derivatives against EcGUS were investigated using similar assays as described in Section 2.4. The reaction conditions are as follows: 10 µL pure enzyme (final concentration, 2 µg/mL), 70 µL PBS buffer (pH 7.4), 10 µL test compound or DSL (final concentration, 0.001–5000 µM) and 10 µL PNPG (final concentration, 250 µM) incubating at 37 °C for 30 min. The IC50 values were calculated by plotting the concentration–response curve using GraphPad Prism 6.0 (GraphPad Software, La Jolla, CA).
(§1) All experiments were carried out in triplicate and repeated at least two times. All data were expressed as mean ± standard deviation (SD). The IC50 values were defined as the concentration of inhibitor that is required for 50% inhibition and evaluated by nonlinear regression using GraphPad Prism 6.0 software (GraphPad Software, La Jolla, CA).

[2] = molecular target: T1, Escherichia coli β-glucuronidase (EcGUS); assay: Inhibition kinetic analysis (Lineweaver–Burk plots, Ki) against EcGUS; type: biochemical; conditions: for Ki: PNPG 0.2-1.0 mM, nonlinear regression; for Inhibition type: from intersection point in Lineweaver–Burk plots
Protocol: To further characterise the inhibition behaviour of discovered inhibitors, multiple concentrations of compounds (0.5–12 µM) or DSL (50–100 µM) and PNPG (0.2, 0.3, 0.5, and 1.0 mM) were applied to determine the corresponding reaction rates. The inhibition type was evaluated through determining the intersection point in Lineweaver–Burk plots, and the Ki values were calculated by nonlinear regression of different inhibition types using the GraphPad Prism 6.0 (GraphPad Software, La Jolla, CA).
as §1

EcGUS = conditions: cited from earlier work
[3] = 10 µM compound, PNPG 250 µM, EcGUS 2 µg/mL, PBS pH 7.4, 37 °C, 30 min, read-out: Inhibition rate at 10 μM
[4] = PNPG 250 µM, EcGUS 2 µg/mL, PBS pH 7.4, 37 °C, 30 min
[5] = pH 7.4, read-out: Inhibition rate at 10 μM

N#C/N=C1\SCCN1C(=O)c1ccc(-c2ccccc2Cl)o1 [Compound 1]
inhibition at 10 µM [1, 3]: 77.2 ± 0.6%
IC50 [1, 4]: 5.7 ± 0.6 µM
Ki [2]: < 3.5 µM and 3.5 µM
Inhibition type [2]: competitive EcGUS inhibitors
melting point: 101 to 102 °C

N#C/N=C1\SCCN1C(=O)c1ccc(-c2cccc(Cl)c2)o1 [Compound 2]
inhibition at 10 µM [1, 3]: 95.2 ± 0.3%
IC50 [1, 4]: 1.2 ± 0.2 µM
Ki [2]: < 3.5 µM and 0.7 µM
Inhibition type [2]: competitive EcGUS inhibitors
melting point: 166 to 167 °C

N#C/N=C1\SCCN1C(=O)c1ccc(-c2ccc(Cl)cc2)o1 [Compound 3]
inhibition at 10 µM [1, 3]: 80.2 ± 1.8%
IC50 [1, 4]: 4.7 ± 0.6 µM
Ki [2]: < 3.5 µM and 2 µM
Inhibition type [2]: competitive EcGUS inhibitors
melting point: 149 to 150 °C

N#C/N=C1\SCCN1C(=O)c1ccc(-c2ccccc2F)o1 [Compound 4]
inhibition at 10 µM [1, 3]: 61.6 ± 0.6%
IC50 [1, 4]: 11.9 ± 1.5 µM
melting point: 137 to 138 °C

N#C/N=C1\SCCN1C(=O)c1ccc(-c2ccc(F)cc2)o1 [Compound 5]
inhibition at 10 µM [1, 3]: 66.5 ± 1.2%
IC50 [1, 4]: 7.3 ± 0.7 µM
melting point: 129 to 130 °C

N#C/N=C1\SCCN1C(=O)c1ccc(-c2ccc(F)cc2F)o1 [Compound 6]
inhibition at 10 µM [1, 3]: 43.9 ± 0.7%
IC50 [1, 4]: 23.1 ± 1.5 µM
melting point: 140 to 141 °C

N#C/N=C1\SCCN1C(=O)c1ccc(-c2c(F)cccc2F)o1 [Compound 7]
inhibition at 10 µM [1, 3]: 64.1 ± 1.2%
IC50 [1, 4]: 9.3 ± 1.1 µM
melting point: 136 to 137 °C

N#C/N=C1\SCCN1C(=O)c1ccc(-c2ccccc2[N+](=O)[O-])o1 [Compound 8]
IC50 [1, 4]: < 10 µM
inhibition at 10 µM [1, 5]: 31.4 ± 1.8%
melting point: 135 to 136 °C

N#C/N=C1\SCCN1C(=O)c1ccc(-c2ccc([N+](=O)[O-])cc2)o1 [Compound 9]
inhibition at 10 µM [1, 3]: 40.3 ± 3.2%
IC50 [1, 4]: 22.2 ± 2.5 µM
melting point: > 290 °C

N#C/N=C1\SCCN1C(=O)c1ccc(-c2ccc(Br)cc2)o1 [Compound 10]
inhibition at 10 µM [1, 3]: 68.7 ± 1.8%
IC50 [1, 4]: 10.8 ± 0.2 µM
melting point: 169 to 170 °C

Cc1ccc(-c2ccc(C(=O)N3CCS/C3=N\C#N)o2)cc1 [Compound 11]
inhibition at 10 µM [1, 3]: 33.5 ± 2.5%
IC50 [1, 4]: 22.3 ± 2.6 µM
melting point: 151 to 152 °C

COc1ccc(-c2ccc(C(=O)N3CCS/C3=N\C#N)o2)cc1 [Compound 12]
inhibition at 10 µM [1, 3]: 49.6 ± 0.6%
IC50 [1, 4]: 18.5 ± 2.1 µM
melting point: 151 to 152 °C

N#C/N=C1\SCCN1C(=O)c1ccc(-c2ccccc2)o1 [Compound 13]
inhibition at 10 µM [1, 3]: 61.8 ± 1.3%
IC50 [1, 4]: 10.7 ± 0.5 µM
melting point: 143 to 144 °C

O=C(O)[C@@H](O)[C@H]1OC(=O)[C@H](O)[C@H]1O [D-Saccharic acid 1,4-lactone, D-saccharic acid-1,4-lactone, reference compound]
IC50 [1, 4]: 67.3 ± 0.6 µM
inhibition at 10 µM [1, 5]: 11.6 ± 0.6%
Ki [2]: 30.9 ± 2.2 µM
Inhibition type [2]: mixed inhibitors

O=c1cc(-c2ccc(O)cc2)oc2cc(O)c(O)c(O)c12 [Scutellarein]
Inhibition type against EcGUS (EcGUS): potent competitive inhibitors

Clc1ccc2c(c1)C(N1CCNCC1)=Nc1ccccc1O2 [amoxapine]
Inhibition type against EcGUS (EcGUS): uncompetitive inhibition

CCOC(=O)/C=C/c1ccc(O)c(O)c1 [caffeic acid ethyl ester]
Inhibition type against EcGUS (EcGUS): potent competitive inhibitors

CC(C)=CCc1c(-c2ccc(O)cc2O)oc2c([C@H]3C=C(C)C[C@@H](c4ccc(O)cc4O)[C@@H]3C(=O)c3ccc(O)cc3O)c(O)cc(O)c2c1=O [kuwanon G]
Inhibition type against EcGUS (EcGUS): mixed-type inhibition

CC(C)=CC[C@]12Oc3cc(O)c([C@H]4C=C(C)C[C@H](c5ccc(O)cc5O)[C@H]4C(=O)c4ccc(O)cc4O)c(O)c3C(=O)[C@@]1(O)Oc1cc(O)ccc12 [sanggenon C]
Inhibition type against EcGUS (EcGUS): mixed-type inhibition
